Test results: ChEMBL document CHEMBL5113532, “Design and Characterization of a Natural Arf-GEFs Inhibitor Prodrug CHNQD-01255 with Potent Anti-Hepatocellular Carcinoma Efficacy In Vivo” (J Med Chem, 2022)
≈ marks a conversion by molar mass, not a printed value. Calls of active or inactive are those of the source. No cut-off for these calls is given here.

Tests used:
[1] = MRT (0 to t) in ICR mouse at 45 mg/kg, po measured after 0.083 to 12 hrs by UPLC-MS/MS analysis; format: ADME, organism-based; settings: in vivo, time 0.083-12 hrs
HepG2 = test: Antitumor activity against human HepG2 cells xenografted in BALB/c nude mouse assessed as reduction in tumor weight at 1 to 9 mg/kg, iv qd administered daily for 21 consecutive days measured on day 21; format: functional, organism-based; settings: dose 1-9 mg/kg, time 21.0 day
[2] = Hepatotoxicity in ICR mouse assessed as change in blood ALP level at 45 mg/kg, po by biochemical assay; format: toxicity, organism-based; settings: in vivo
[3] = Drug elimination in ICR mouse liver at 100 mg/kg, ip measured for 1.5 hrs by UPLC-MS/MS analysis; format: ADME, organism-based; settings: in vivo
[4] = Stability of the compound at 4 to 60 degree C measured of 5 days by HPLC analysis; format: physicochemical; settings: 120 h; time 5 day
[5] = Drug distribution in ICR mouse Spleen at 100 mg/kg, ip measured upto 0.5 hrs by UPLC-MS/MS analysis; format: ADME, organism-based; settings: in vivo
[6] = Toxicity in BALB/c mouse xenografted with human HepG2 cells assessed as change in body weight at 15 to 45 mg/kg, po qd at 45 mg/kg, po treated daily for 21 days measured every 3 days for 21 days; format: organism-based; settings: in vivo, 504 h, dose 15-45 mg/kg, time 21 day
[7] = Toxicity in BALB/c mouse xenografted with human HepG2 cells assessed as change in body weight at 1 to 9 mg/kg, iv qd at 45 mg/kg, po treated daily for 21 days measured every 3 days upto 21 days; format: organism-based; settings: in vivo, 504 h, dose 1-9 mg/kg, time < 21 day
[8] = Apparent volume of distribution in ICR mouse at 45 mg/kg, po measured after 0.083 to 12 hrs by UPLC-MS/MS analysis; format: ADME, organism-based; settings: in vivo, time 0.083-12 hrs
[9] = Drug elimination in ICR mouse lung at 100 mg/kg, ip measured for 1.5 hrs by UPLC-MS/MS analysis; format: ADME, organism-based; settings: in vivo
[10] = Drug elimination in ICR mouse duodenum at 100 mg/kg, ip measured for 1.5 hrs by UPLC-MS/MS analysis; format: ADME, organism-based; settings: in vivo
[11] = Acute toxicity in po dosed ICR mouse assessed as maximum tolerated dose; format: organism-based; settings: in vivo
[12] = Hepatotoxicity in ICR mouse assessed as change in blood ALT level at 45 mg/kg, po by biochemical assay; format: toxicity, organism-based; settings: in vivo
[13] = Toxicity in ICR mouse assessed as mortality at 45 mg/kg, po qd measured for 14 days; format: organism-based; settings: in vivo, 336 h, time 14 day
[14] = AUC (0 to t) in ICR mouse at 45 mg/kg, po measured after 0.083 to 12 hrs by UPLC-MS/MS analysis; format: ADME, organism-based; design: dose 45 mg/kg, time upper 12 hrs, time lower 0.083 hrs, route po; settings: in vivo
[15] = Solubility of the compound in saline/solutol HS-15 (95/5% V/V) at pH 7.4; format: physicochemical
[16] = Toxicity in ICR mouse assessed as effect on lung at 45 mg/kg, po measured after 2 weeks by H and E staining based analysis; format: organism-based; settings: in vivo, 336 h
[17] = Drug distribution in ICR mouse duodenum at 100 mg/kg, ip measured upto 0.5 hrs by UPLC-MS/MS analysis; format: ADME, organism-based; settings: in vivo
[18] = Solubility of the compound in saline/solutol HS-15 (90/10% V/V) at pH 7.4; format: physicochemical
[19] = Toxicity in ICR mouse assessed as change in body weight at 100 mg/kg, ip qd measured for 14 days; format: organism-based; settings: in vivo, 336 h, time 14 day

SMILES: C[C@H]1CCC/C=C/[C@@H]2C[C@H](OC(=O)OCc3cccnc3)C[C@H]2[C@H](O)/C=C/C(=O)O1
- MRT last [1]: 2.92 h
- Activity (HepG2): Active
- Activity [2]: Non-Toxic
- Drug excretion [3]: Active
- Stability [4]: Stable
- Drug uptake [5]: Active
- Activity [6]: Non-Toxic
- Activity [7]: Non-Toxic
- Vz [8]: 6339.7436 L/kg
- Drug excretion [9]: Active
- Drug excretion [10]: Active
- MTD [11]: > 750 mg/kg
- Activity [12]: Non-Toxic
- Activity [13]: Non-Toxic
- AUC(0-t) [14]: 52.9 ng·h/mL
- solubility [15]: 1000 µg/mL (≈ 2.41 mM)
- Activity [16]: Non-Toxic
- Drug uptake [17]: Active
- solubility [18]: 5000 µg/mL (≈ 12 mM)
- Activity [19]: Non-Toxic
